*1 amine or outer side, *2 acyl side, *3 side chain or, on linkers, in order; H or OH if unused. Where a SMILES comes first, the peptide text is derived from it. Side-chain parts run from the residue outwards. [ ]: non-standard residue; d: D form. The star is where a group is joined. NH(4-Cl-phenyl) = Clc1ccc(N*)cc1; Cha = N[C@@H](CC1CCCCC1)C(=O)O; Tle = CC(C)(C)[C@H](N)C(=O)O; NH(2-ClPh) = Clc1ccccc1N*; dDab = NCC[C@@H](N)C(=O)O; Orn = NCCC[C@H](N)C(=O)O; Dab = NCC[C@H](N)C(=O)O; Dap = NC[C@H](N)C(=O)O; CO = O=C([*:1])[*:2]

Experimental findings from US9938322B2, “β-hairpin peptidomimetics” (priority 2013, dated 2018) are described below.

Type in all cases: cell-based
For data set [1], the system named is Acinetobacter baumannii DSM 30008. Conditions: Mueller-Hinton II broth + 0.02% BSA, 18-20 hours at 35° C. How it is done:
(§1) Lyophilized peptides were weighed on a Microbalance (Mettler MT5) and dissolved in sterile water to a final concentration of 1 mg/ml. Stock solutions were kept at +4° C., light protected.
(§2) The selective antimicrobial activities of the peptides were determined in 96-well plates (Greiner, polystyrene) by the standard NCCLS broth microdilution method (National Committee for Clinical Laboratory Standards 1993. Methods for dilution antimicrobial susceptibility tests for bacteria that grow aerobically, 3rd ed. Approved standard M7-A6; National Committee for Clinical laboratory standards, Wayne, Pa.) with slight modifications. Inocula of the microorganisms were diluted into Mueller-Hinton II (MH, cation adjusted) broth+0.02% BSA and compared with a 0.5 McFarland standard to give appr. 10^6 colony forming units (CFU)/ml. Aliquots (50 μl) of inoculate were added to 50 μl of MH broth+0.02% BSA containing the peptide in serial two-fold dilutions. The following microorganisms were used to determine antibiotic selectivity of the peptides: Escherichia coli ATCC 25922, Klebsiella pneumoniae ATCC 13883 and Acinetobacter baumannii DSM 30008.

In data set [2] the test system is Escherichia coli ATCC 25922. Conditions: Mueller-Hinton II broth + 0.02% BSA, 18-20 hours at 35° C. As for the experimental part:
as §1, §2

The subject of data set [3] is Klebsiella pneumoniae ATCC 13883. The conditions noted are these: Mueller-Hinton II broth + 0.02% BSA, 18-20 hours at 35° C. As for the experimental part: as §1, §2
The test system of data set [4] is human red blood cells (hRBC). Nature of the data set: Hemolysis of human red blood cells. In short, it runs like this:
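Washed fresh human erythrocytes (20% v/v, about 0.9×10^9 cells/ml final) incubated with peptide at 100 μg/ml for 1 h at 37° C with shaking. Supernatant OD540 read; hemolysis expressed relative to 2.5% Triton X-100 (100%) and PBS with 0.001% acetic acid (0%).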

The mark [5] stands for this setting: 100 μg/ml, 20% hRBC, 1 h at 37° C.

On to `CC(C)C[C@@H]1NC(=O)[C@@H]2CCCN2C(=O)[C@H]2CCCN2C(=O)[C@H](CO)NC(=O)[C@H](C)NC(=O)[C@H](C(C)(C)C)NC(=O)[C@H](CCN)NC(=O)[C@H](Cc2c[nH]c3ccccc23)NC(=O)[C@H](CCN)NC(=O)[C@@H](CCN)NC(=O)[C@H](CCCN)NC(=O)[C@H](CCN)NC(=O)[C@H](CC2CCCCC2)NC(=O)[C@H](CNC(=O)Nc2ccccc2Cl)NC1=O` [compound 38] (cyclo(L[Dap]([CO-NH(2-ClPh)])[Cha][Dab][Orn][dDab][Dab]W[Dab][Tle]AS[dP]P)), for which, in data set [1], the “Acinetobacter baumannii DSM 30008 MIC” value was determined as 1 mg/L. Further, the “Escherichia coli ATCC 25922 MIC” value in data set [2] was 1 mg/L. The “Klebsiella pneumoniae ATCC 13883 MIC” value in data set [3] was 1 mg/L. For the same compound, in data set [4] (setting [5]), the “Hemolysis at 100 μg/ml” value is recorded as 4%.
Consider `C[C@@H]1NC(=O)[C@H](CNC(=O)Nc2ccccc2Cl)NC(=O)[C@@H]2CCCN2C(=O)[C@H]2CCCN2C(=O)[C@H](CO)NC(=O)[C@H](C)NC(=O)[C@H](C(C)(C)C)NC(=O)[C@H](CCN)NC(=O)[C@H](Cc2c[nH]c3ccccc23)NC(=O)[C@H](CCN)NC(=O)[C@@H](CCN)NC(=O)[C@H](CCCN)NC(=O)[C@H](CCN)NC(=O)[C@H](CC2CCCCC2)NC1=O` [compound 52] (cyclo([Dap]([CO-NH(2-ClPh)])A[Cha][Dab][Orn][dDab][Dab]W[Dab][Tle]AS[dP]P)), for which the “Acinetobacter baumannii DSM 30008 MIC” value in data set [1] is 2 mg/L. For the same compound, the “Escherichia coli ATCC 25922 MIC” value in data set [2] came out at 1 mg/L. Also, the “Klebsiella pneumoniae ATCC 13883 MIC” value in data set [3] was 1 mg/L. The “Hemolysis at 100 μg/ml” value in data set [4] (setting [5]) is listed as 0%.
As to `C[C@@H]1NC(=O)[C@H](CNC(=O)Nc2ccc(Cl)cc2)NC(=O)[C@@H]2CCCN2C(=O)[C@H]2CCCN2C(=O)[C@H](CO)NC(=O)[C@H](C)NC(=O)[C@H](C(C)(C)C)NC(=O)[C@H](CCN)NC(=O)[C@H](Cc2c[nH]c3ccccc23)NC(=O)[C@H](CCN)NC(=O)[C@@H](CCN)NC(=O)[C@H](CCCN)NC(=O)[C@H](CCN)NC(=O)[C@H](CC2CCCCC2)NC1=O` [compound 53] (cyclo([Dap]([CO-NH(4-Cl-phenyl)])A[Cha][Dab][Orn][dDab][Dab]W[Dab][Tle]AS[dP]P)), the “Acinetobacter baumannii DSM 30008 MIC” value in data set [1] amounted to 1 mg/L. Moreover, the “Escherichia coli ATCC 25922 MIC” value in data set [2] was found to be 1 mg/L. Further, the “Klebsiella pneumoniae ATCC 13883 MIC” value in data set [3] came out at 1 mg/L. Also, the “Hemolysis at 100 μg/ml” value in data set [4] (setting [5]) is given as 2%.
As for `C[C@@H]1NC(=O)[C@H](C(C)(C)C)NC(=O)[C@H](CCN)NC(=O)[C@H](Cc2c[nH]c3ccccc23)NC(=O)[C@H](CCN)NC(=O)[C@@H](CCN)NC(=O)[C@H](CCCN)NC(=O)[C@H](CCN)NC(=O)[C@H](Cc2ccc(O)cc2)NC(=O)[C@H](CN)NC(=O)[C@H](Cc2ccccc2)NC(=O)[C@@H]2CCCN2C(=O)[C@H]2CCCN2C(=O)[C@H](CO)NC1=O` [compound 160] (cyclo(F[Dap]Y[Dab][Orn][dDab][Dab]W[Dab][Tle]AS[dP]P)), in data set [4] (red cells of human, 1 h, 100), the “Hemolysis at 100 μg/ml” value is on record as 1%.
For the compound `CC(C)C[C@@H]1NC(=O)[C@H](C)NC(=O)[C@H](C(C)(C)C)NC(=O)[C@H](CCN)NC(=O)[C@H](Cc2c[nH]c3ccccc23)NC(=O)[C@H](CCN)NC(=O)[C@@H](CCN)NC(=O)[C@H](CCCN)NC(=O)[C@H](CCN)NC(=O)[C@H](Cc2ccc(O)cc2)NC(=O)[C@H](CO)NC(=O)[C@H]([C@@H](C)O)NC(=O)[C@@H]2CCCN2C(=O)[C@H]2CCCN2C1=O` [compound 161] (cyclo(TSY[Dab][Orn][dDab][Dab]W[Dab][Tle]AL[dP]P)), the “Hemolysis at 100 μg/ml” value in data set [4] (red cells of human, 1 h, 100) was determined as 2%.
